This assay concerns the target acetylcholinesterase (AChE) from Electrophorus electricus (electric eel) (Electrophorus electricus, UniProt O42275). The experiment in a line: Ellman assay, […] nm. It counts as biochemical.

Where two headings read alike, the source gives them in different places.

In general, IC50 refers to the point on the concentration scale where inhibition reaches its midpoint. Lower therefore signals inhibition by little substance.

acetylcholinesterase (AChE) from Electrophorus electricus (electric eel), sequence (O42275 24-633): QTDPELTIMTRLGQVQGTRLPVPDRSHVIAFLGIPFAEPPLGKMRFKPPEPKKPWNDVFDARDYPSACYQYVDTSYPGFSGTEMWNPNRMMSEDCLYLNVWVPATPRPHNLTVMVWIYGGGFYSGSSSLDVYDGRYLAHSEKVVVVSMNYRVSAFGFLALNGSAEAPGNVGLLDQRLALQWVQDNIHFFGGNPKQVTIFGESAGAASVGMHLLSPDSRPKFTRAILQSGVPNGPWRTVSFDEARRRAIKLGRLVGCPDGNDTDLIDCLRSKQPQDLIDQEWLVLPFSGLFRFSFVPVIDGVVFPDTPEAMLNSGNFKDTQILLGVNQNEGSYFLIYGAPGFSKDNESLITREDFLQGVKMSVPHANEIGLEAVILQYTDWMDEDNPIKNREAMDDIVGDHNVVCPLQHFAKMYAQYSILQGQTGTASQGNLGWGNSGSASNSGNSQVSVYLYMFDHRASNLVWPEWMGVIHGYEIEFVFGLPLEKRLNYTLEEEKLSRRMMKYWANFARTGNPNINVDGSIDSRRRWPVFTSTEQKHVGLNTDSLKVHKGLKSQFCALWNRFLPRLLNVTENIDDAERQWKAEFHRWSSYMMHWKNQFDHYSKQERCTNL

`CCCCCCCCCCCCCCCc1cc(O)cc(O)c1` [AR 15:0]: the IC50 is above 94 µM.
Still for that read-out and setting: the figure for `CCCCCCCCCCCCCCCCCCCc1cc(O)cc(O)c1` [AR 19:0] is 77 ± 1.25 µM.
Compound `CCCCCCCCCCCCCCCCCCCCCc1cc(O)cc(O)c1` [AR 21:0] yielded an IC50 of 44 ± 0.47 µM.
Still for that read-out and setting: the same measure for `CCCCCCCCCCCCCCCCCCCCCCCCCc1cc(O)cc(O)c1` [AR 25:0]: 44 ± 4.24 µM.
Consider Cardol, for which the IC50 (acetylthiocholine iodide (0.476 μM as printed), pH 8.0, 37 °C, 5 min pre-incubation) came out at 3.5 ± 0.2 µM.

Source of the values: publication PMC4042574, “Phenolic Lipids Affect the Activity and Conformation of Acetylcholinesterase from Electrophorus electricus (Electric eel)” (Nutrients, 2014).
